# Source: US11083725B2 (priority 2014, dated 2021)
# Test system: NHBE cells
# Experiment: Biolog metabolic array: substrate use by NHBE cells with or without CA09 infection
# Format: cell-based, human
# Settings: for Substrate use, 590 nm absorbance normalized to zero hour, 0 hr: Biolog PMM2, 0 hr; for Substrate use, 590 nm absorbance normalized to zero hour, 1 hr: Biolog PMM2, 1 hr; for Substrate use, 590 nm absorbance normalized to zero hour, 5 hr: Biolog PMM2, 5 hr; for Substrate use, 590 nm absorbance normalized to zero hour, 7 hr: Biolog PMM2, 7 hr
# [1] = Control (uninfected) NHBE cells
# [2] = Virus (CA09-infected, MOI 1) NHBE cells
# [3] = Virus: CA09-infected NHBE cells, MOI 1, Biolog PMM2
Molecule,"590 nm absorbance normalized to zero hour (substrate use), 0 hr [1]","590 nm absorbance normalized to zero hour (substrate use), 1 hr [1]","590 nm absorbance normalized to zero hour (substrate use), 2 hr [1]","590 nm absorbance normalized to zero hour (substrate use), 3 hr [1]","590 nm absorbance normalized to zero hour (substrate use), 4 hr [1]","590 nm absorbance normalized to zero hour (substrate use), 6 hr [1]","590 nm absorbance normalized to zero hour (substrate use), 8 hr [1]","590 nm absorbance normalized to zero hour (substrate use), 9 hr [1]","590 nm absorbance normalized to zero hour (substrate use), 10 hr [1]","590 nm absorbance normalized to zero hour (substrate use), 11 hr [1]","Substrate use, 590 nm absorbance normalized to zero hour, 0 hr [1]","Substrate use, 590 nm absorbance normalized to zero hour, 1 hr [1]","Substrate use, 590 nm absorbance normalized to zero hour, 5 hr [1]","Substrate use, 590 nm absorbance normalized to zero hour, 7 hr [1]","590 nm absorbance normalized to zero hour (substrate use), 0 hr [2]","590 nm absorbance normalized to zero hour (substrate use), 1 hr [2]","590 nm absorbance normalized to zero hour (substrate use), 2 hr [2]","590 nm absorbance normalized to zero hour (substrate use), 3 hr [2]","590 nm absorbance normalized to zero hour (substrate use), 5 hr [2]","590 nm absorbance normalized to zero hour (substrate use), 6 hr [2]",also measured
OCC1OC(OC2C(CO)OC(OC3C(CO)OC(O)C(O)C3O)C(O)C2O)C(O)C(O)C1O (stereo not drawn) [Malto-triose],1.00,2.27,3.36,4.16,4.58,5.62,7.97,7.32,6.88,8.46,1.00,2.27,6.09,7.39,1.00,2.01,3.05,3.70,5.20,5.81,"590 nm absorbance normalized to zero hour (substrate use), 4 hr [2]: 4.08; 590 nm absorbance normalized to zero hour (substrate use), 7 hr [2]: 6.29; 590 nm absorbance normalized to zero hour (substrate use), 8 hr [2]: 6.78; 590 nm absorbance normalized to zero hour (substrate use), 9 hr [2]: 7.44; 590 nm absorbance normalized to zero hour (substrate use), 10 hr [2]: 6.04; 590 nm absorbance normalized to zero hour (substrate use), 11 hr [2]: 6.50; 590 nm absorbance normalized to zero hour (substrate use), 0 hr [3]: 1.00; 590 nm absorbance normalized to zero hour (substrate use), 1 hr [3]: 2.01; 590 nm absorbance normalized to zero hour (substrate use), 2 hr [3]: 3.05; 590 nm absorbance normalized to zero hour (substrate use), 3 hr [3]: 3.70; 590 nm absorbance normalized to zero hour (substrate use), 4 hr [3]: 4.08; 590 nm absorbance normalized to zero hour (substrate use), 5 hr [3]: 5.20; 590 nm absorbance normalized to zero hour (substrate use), 6 hr [3]: 5.81; 590 nm absorbance normalized to zero hour (substrate use), 7 hr [3]: 6.29; 590 nm absorbance normalized to zero hour (substrate use), 8 hr [3]: 6.78; 590 nm absorbance normalized to zero hour (substrate use), 9 hr [3]: 7.44; 590 nm absorbance normalized to zero hour (substrate use), 10 hr [3]: 6.04; 590 nm absorbance normalized to zero hour (substrate use), 11 hr [3]: 6.50"
Mannan,1.00,1.03,0.89,1.03,1.06,1.80,1.08,1.09,1.11,1.27,1.00,1.03,1.14,1.15,1.00,1.03,1.25,1.28,1.41,1.44,"590 nm absorbance normalized to zero hour (substrate use), 7 hr [2]: 1.49; 590 nm absorbance normalized to zero hour (substrate use), 8 hr [2]: 1.49; 590 nm absorbance normalized to zero hour (substrate use), 9 hr [2]: 1.61; 590 nm absorbance normalized to zero hour (substrate use), 11 hr [2]: 1.76; 590 nm absorbance normalized to zero hour (substrate use), 0 hr [3]: 1.00; 590 nm absorbance normalized to zero hour (substrate use), 1 hr [3]: 1.03; 590 nm absorbance normalized to zero hour (substrate use), 2 hr [3]: 1.25; 590 nm absorbance normalized to zero hour (substrate use), 3 hr [3]: 1.28; 590 nm absorbance normalized to zero hour (substrate use), 5 hr [3]: 1.41; 590 nm absorbance normalized to zero hour (substrate use), 6 hr [3]: 1.44; 590 nm absorbance normalized to zero hour (substrate use), 7 hr [3]: 1.49; 590 nm absorbance normalized to zero hour (substrate use), 8 hr [3]: 1.49; 590 nm absorbance normalized to zero hour (substrate use), 9 hr [3]: 1.61; 590 nm absorbance normalized to zero hour (substrate use), 11 hr [3]: 1.76"
